Assay results taken from patent US20060094722A1 (Eisai Co., Ltd., priority 2002, published 2006).
Read-outs that look alike come from different tables or passages of the source.

Tests used:
[1] = test system: Zucker fa/fa rats; settings: for Blood glucose level at each time point (hr) after oral glucose administration / GLP-1 concentration at each time point (hr) after oral glucose administration (% of Pre) / Insulin concentration at each time point (hr) after oral glucose administration: 30 mg/kg p.o. 0.5 hour before glucose load
Method: (§1) Animals: Zucker fa/fa Rats, an Animal Model for TypeII Diabetes (Purchased from Charles River Japan, Inc.)
(§2) Each test compound was dissolved in distilled water at the doses shown in the Tables indicated below, and then administered orally at a volume of 5 mL/kg. The vehicle control group was orally administered distilled water at a volume of 5 mL/kg. […] The rats were tested for glucose tolerance on the first day of the administration series. In the test, distilled water and the test compounds were given 0.5 hour before glucose load.
For the glucose tolerance test, an unanesthetized rat was lightly cut at the caudal vein with a razor blade and bled immediately before the administration of a test compound or distilled water, and immediately before, and at 0.5, 1, 2, and 3 hours after glucose load. 250 μL of blood was collected from the rat using a heparinized capillary and transferred into a centrifugation tube. The supernatant obtained by centrifugation (at 10000 g at 4° C. for 2 minutes) was assayed for active GLP-1 level using Active GLP-1 ELISA kit (Linco). At the same time, 10 μL of blood was collected and mixed with 140 μL of a 0.6 M perchloric acid solution. The mixture was centrifuged (at 3000 g at 4° C. for 10 minutes), and the resulting supernatant was assayed for glucose using Glucose Test Wako II (Wako Pure Chemical Industries, Inc.). The level of blood glucose alone was determined at the time of measurement 3 hours after glucose load.

[2] = test system: Zucker fa/fa rats; settings: 30 mg/kg p.o. twice daily for 14 days
Method: as §1, §2
Food intake and body weight were determined at 4:00 p.m after the 14-day administration series. Total food intake and weight gain over 14 days were determined for each experimental group.

[3] = test system: DPPIV-intact normal male Fisher rats; settings: 30 mg/kg p.o.
Method: Animals: DPPIV-Intact Normal Male Fisher Rats (Purchased from CLEA Japan, Inc.)
Each test compound was suspended in a solution of 0.5% methyl cellulose at the doses indicated in Table 3, and then administered orally at a volume of 5 mL/kg. The vehicle control group was orally administered a solution of 0.5% methyl cellulose at a volume of 5 mL/kg.
An unanesthetized rat was lightly cut at the caudal vein with a razor blade and bled immediately before, and at 1, 3, and 5 hours after administration of a test compound or a solution of 0.5% methyl cellulose. 250 μL of blood was collected from the rat using a heparinized capillary and transferred into a centrifugation tube. The supernatant obtained by centrifugation (at 10000 g at 4° C. for 2 minutes) was assayed for GLP-1 level using Active GLP-1 ELISA kit (Linco).

[4] = test system: BALB/c AnCrj mice; settings: 30 mg/kg p.o. twice a day, 5-FU treatment 60 mg/kg for 3 days, mice
Method: Animals: BALB/c AnCrj Mice (Purchased from Charles River Japan, Inc.)
5-FU (purchased from Sigma) was suspended in a solution of 0.5% methyl cellulose, and then administered orally at a volume of 10 mL/kg/day (8 a.m. to 9 a.m.) for 3 days (60 mg/kg). […] The vehicle control group was orally administered a solution of 0.5% methyl cellulose at a volume of 10 mL/kg.
Mice were fasted for 18 hours following the afternoon administration on the third day of the administration series. On the following day, the mice were killed by cervical dislocation, and then the whole small intestine was excised and the wet weight was measured.

## CC(C)[C@H](N)C(=O)N1CCCC1 [Val-Pyr, valine pyrrolidide]
[1]
  level of insulin during the glucose tolerance test: increased significantly
[1]; 0 hr
  Blood glucose level at each time point (hr) after oral glucose administration: 110.5 ± 3.3 mg/dL
  GLP-1 concentration at each time point (hr) after oral glucose administration (% of Pre): 119.5 ± 3.6 % of Pre
  Insulin concentration at each time point (hr) after oral glucose administration: 13.1 ± 1.2 ng/mL
[1]; 0.5 hr
  Blood glucose level at each time point (hr) after oral glucose administration: 166.0 ± 9.9 mg/dL
  GLP-1 concentration at each time point (hr) after oral glucose administration (% of Pre): 217.6 ± 24.6 % of Pre
  Insulin concentration at each time point (hr) after oral glucose administration: 32.4 ± 3.2 ng/mL
[1]; 1 hr
  Blood glucose level at each time point (hr) after oral glucose administration: 167.1 ± 7.0 mg/dL
  GLP-1 concentration at each time point (hr) after oral glucose administration (% of Pre): 197.5 ± 20.4 % of Pre
  Insulin concentration at each time point (hr) after oral glucose administration: 27.7 ± 5.0 ng/mL
[1]; 2 hr
  Blood glucose level at each time point (hr) after oral glucose administration: 139.3 ± 3.3 mg/dL
  GLP-1 concentration at each time point (hr) after oral glucose administration (% of Pre): 128.3 ± 5.4 % of Pre
  Insulin concentration at each time point (hr) after oral glucose administration: 14.4 ± 2.6 ng/mL
[1]; 3 hr
  Blood glucose level at each time point (hr) after oral glucose administration: 115.1 ± 3.0 mg/dL
[1]; −0.5 hr
  Blood glucose level at each time point (hr) after oral glucose administration: 102.6 ± 3.0 mg/dL
  GLP-1 concentration at each time point (hr) after oral glucose administration (% of Pre): 100.0 ± 0.0 % of Pre
  Insulin concentration at each time point (hr) after oral glucose administration: 8.8 ± 1.1 ng/mL
[1]; glucose tolerance test
  glucose tolerance: improved
[2]
  Total food intake for 14 days: 491.8 ± 11.1 g
  Weight gain for 14 days: 60.9 ± 4.4 g
[3]; 0 hr
  GLP-1 concentration at each time point (hr) after oral administration (% of Pre): 100 ± 0.0 % of Pre
[3]; 1 hr
  GLP-1 concentration at each time point (hr) after oral administration (% of Pre): 127 ± 6 % of Pre
[3]; 3 hr
  GLP-1 concentration at each time point (hr) after oral administration (% of Pre): 136 ± 20 % of Pre
[3]; 5 hr
  GLP-1 concentration at each time point (hr) after oral administration (% of Pre): 91 ± 2 % of Pre
[4]
  Wet weight of small intestine: 0.637 ± 0.015 g
[4]; listed as DPPIV inhibitor
  Wet weight of small intestine (g): no alteration
